Measurements from patent US20250186448A1 (Mezzion Pharma Co., Ltd., priority 2021, published 2025).
Values joined by “and” are separate entries in the source; they are usually repeats but may differ in a detail not shown here. Identical values can stand only once. “Also recorded” adds a separate entry of the source.

How the values were obtained:
[1] = tested on: adolescents with Fontan physiology; experiment: FUEL trial: peripheral arterial tonometry (EndoPAT), log-transformed reactive hyperemia index (lnRHI); format: in vivo, human
Description: Pulse amplitude tonometry (PAT), a FDA-approved method for assessing vascular function, is increasingly being used as an alternative measure of endothelium-dependent dilation in response to reactive hyperemia and flow-mediated dilation (FMD). The PAT device records digital pulse wave amplitude (PWA) using fingertip plethysmography. PWA can be measured continuously during three phases: a quiet baseline period, 5-min forearm occlusion, and reactive hyperemia following cuff release. Unlike FMD, PAT testing is not dependent upon a highly skilled technician and post-test analysis is largely automated. […]
The primary outcome was the change in oxygen consumption at peak exercise (max or peak VO2) from baseline to the 26-week visit. […] Safety was monitored through adverse event reports, which were collected according to a pre-specified protocol of study coordinator outreach, and through ad hoc patient and family communication with members of the study team at each site.
Baseline clinical testing completed before drug initiation included a blood draw to measure brain-type natriuretic peptide (BNP) level, a cardiopulmonary exercise test (CPET) using a standardized cycle ergometer ramp protocol, a standardized echocardiogram, and an assessment of peripheral vascular function using peripheral arterial tonometry (PAT) measured by finger cuff (EndoPAT; Itamar Medical, Israel). […]

[2] = tested on: adolescents with Fontan physiology; experiment: FUEL trial: safety, adverse event reports; format: in vivo, human
Description: The primary outcome was the change in oxygen consumption at peak exercise (max or peak VO2) from baseline to the 26-week visit. Secondary exercise outcomes included change in additional measures at maximal exertion, as well as change in measures of submaximal exercise at the ventilatory anaerobic threshold (VAT). The primary outcome for clinical secondary aims included change in myocardial performance index (MPI), an echocardiographically-derived measure of systolic and diastolic ventricular function, change in log-transformed reactive hyperemia index (lnRHI), a PAT-derived measure of peripheral vascular function, and change in log-transformed serum BNP level. Safety was monitored through adverse event reports, which were collected according to a pre-specified protocol of study coordinator outreach, and through ad hoc patient and family communication with members of the study team at each site.
The primary outcome for clinical secondary aims included the between group differences in change in myocardial performance index (MPI), an echocardiographically-derived measure of systolic and diastolic ventricular function, change in log-transformed reactive hyperemia index (lnRHI), a PAT-derived measure of peripheral vascular function, and change in log-transformed serum BNP level. Measurements for each of these secondary outcomes were performed at core labs. Safety was monitored through adverse event reports, which were collected according to a pre-specified protocol of study coordinator outreach, and through ad hoc patient and family communication with members of the study team at each site.

[3] = tested on: adolescents with Single Ventricle Heart Disease who underwent Fontan palliation; experiment: FALD study: liver stiffness by MR elastography; format: in vivo, human; parameters: MRE, Post Baseline: unit not given beside the values; MRE, Change from Baseline / MRE, Baseline: unit not given here
Procedure: MR elastography uses a vibrating passive driver or “paddle” placed on the abdominal wall over the liver in order to generate in vivo shear waves. These shear waves can be tracked using an MRI modified phase contrast pulse sequence. Shear wave data is then used to generate color parameteric maps (elastograms) of liver stiffness that allow quantitative assessment (FIG. 4). […] Pairwise ICCs ranged from 0.67-0.82 when agreement was assessed between individual sequences across manufacturers (GE vs. Philips); the greatest agreement while fixing the pulse sequence was at 1.5 T using 2D GRE sequences (ICC=0.82, r=0.85). Trout […], Kohli R, Sprague […]. Prospective assessment of correlation between US acoustic radiation forced impulse and MR elastography in a pediatric population: Dispersion of US shear-wave speed measurement matters. Radiology 2016 December; 282(3): 544-552. The FALD study, ClinicalTrials.gov Identifier: NCT03430583, which is incorporated herein by reference in its entirety, was an open-label extension study that integrated with the FUEL Extension Trial. […] Both the U- cohort and the U+ cohort had liver stiffness measured by ultrasound and MR elastography (where available), and ELF biomarkers analyzed, as described above. […] The primary outcome measure of the FALD study was the range of liver stiffness in adolescents with Single Ventricle Heart Disease who underwent Fontan palliation. Secondary outcome measures included the effect of drug therapy on liver stiffness, and the effect of drug therapy on Enhanced Liver Fibrosis (ELF) score. See Clinical Trials.gov identifier NCT03430583, at p. 3. It is to be understood that present invention contemplates udenafil drug products that are therapeutically equivalent to the udenafil drug products of the present invention.

[4] = tested on: adolescents with Fontan physiology; details: phase I/II study, cited from earlier work
[5] = Cohort U+ (udenafil for 78 weeks), individual subject
[6] = Cohort U− (udenafil for 52 weeks), individual subject
[7] = individual subject listing, Safety Population

## CCCOc1ccc(S(=O)(=O)NCCC2CCCN2C)cc1-c1nc2c(CCC)nn(C)c2c(=O)[nH]1 (stereo not shown) [Udenafil, udenafil]
[1]
  Change in lnRHI (PAT outcome), udenafil vs placebo: no difference; also recorded: did not reveal a benefit
[2]; FUEL trial
  Deaths in the study cohort: no deaths
[2]; human, in vivo, 6 months
  Non-serious adverse event: Dizziness, participants: 16 (8.0) n (%)
  Non-serious adverse event: Epistaxis, participants: 21 (10.5) n (%)
  Non-serious adverse event: Flushing, participants: 32 (16.0) n (%)
  Non-serious adverse event: Headache, participants: 79 (39.5) n (%)
  Non-serious adverse event: Nausea/vomiting, participants: 31 (15.5) n (%)
  Participants who experienced a serious adverse event: 14
  Serious adverse events with possible, probable, or definite relationship to study drug, number of events: 3
[2]; in vivo
  Headache, facial flushing, abdominal pain, epistaxis, and erection (male participants), frequency vs placebo: more common in the udenafil group
  Priapism: no reported episodes of priapism
[2]; male, human, in vivo, 6 months
  Non-serious adverse event: Increased erection, participants: 13 (11.7) n (%)
[3]; [5]
  MRE, % Change from Baseline: 2.863% and −2.262% and 12.04% and −0.4975% and 7.265% and −14.99% and −24.27% and 16.67% and 18.93% and 0.4975% and −29.4964% and 2.198% and −16.26% and 10.4% and −20.63% and −8.58% and −11.11% and −19.68% and −21.1704% and −12.02% and −6.235%
  MRE, Change from Baseline: 0.15 and −0.1 and 0.49 and −0.03 and 0.98 and 0.34 and −0.52 and −1.59 and 0.81 and 0.03 and −1.64 and 0.1 and −0.86 and 0.7 and −1.05 and −0.58 and −0.67 and −0.98 and −1.23 and −0.59 and −0.26
[3]; Cohort U+ (udenafil for 78 weeks), individual subject, Baseline visit
  MRE, Baseline: 4.42 and 5.88 and 4.07 and 6.03 (3×) and 4.68 and 3.47 and 6.55 and 4.28 and 5.56 and 3.65 and 4.55 and 5.29 and 6.73 and 5.09 and 6.76 and 4.98 and 5.81 and 4.91 and 4.17 and 5.24
[3]; Cohort U+ (udenafil for 78 weeks), individual subject, Post Baseline visit (52 week)
  MRE, Post Baseline: 5.39 and 4.32 (2×) and 6.86 and 4.56 and 6 and 5.02 and 2.95 and 4.96 and 5.09 and 6.06 and 3.92 and 4.65 and 4.43 and 7.43 and 4.04 and 6.18 and 5.36 and 4 and 4.58 and 3.91
[3]; [6]
  MRE, % Change from Baseline: 8.484% and 8.085%
  MRE, Change from Baseline: 0.61 and 0.19
[3]; Cohort U− (udenafil for 52 weeks), individual subject, Post Baseline visit (52 week)
  MRE, Post Baseline: 7.8 and 2.54
[3]; [7]
  MRE, % Change from Baseline: 2.488% and −28.79% and 3.632% and −2.018% and −21.1838% and 67.93% and 25.85% and 11.98% and −10.36% and 12.33% and −5.348% and 17.24% and 33.15% and −8% and −7.32%
  MRE, Change from Baseline: 0.1 and −1.48 and 0.15 and −0.11 and −1.36 and 3.05 and 1.22 and 0.72 and −0.43 (2×) and 0.64 and 1 and 1.2 and −0.44 and −0.53
[3]; individual subject listing, Safety Population, Post Baseline visit
  MRE, Post Baseline: 4.12 and 3.66 and 4.28 and 5.34 and 5.06 (2×) and 7.54 and 5.94 and 6.73 and 3.72 and 5.83 and 2.81 and 7.61 and 6.8 and 4.82 and 6.71
[4]; adolescents with Fontan physiology, all tested dosing regimens
  Tolerability: demonstrated tolerability at all tested dosing regimens
[4]; 87.5 mg twice daily
  Average serum concentration, compared among dosing regimens: highest average serum concentration
  Dose limiting adverse events: not associated with dose limiting adverse events
